Here are results for four compounds from patent publication US6339044B1, “N-P-Cyanoaryl nitrogen-containing heterocycles having pendent sulfur-containing groups” (Bayer Aktiengesellschaft, priority 1993, dated 2002).

The subject of data set [1] is wheat. Nature of the data set: Pre-emergence test, wheat. The following applies: 60 g per hectare, after three weeks, cultivated plant. Format: in vivo. The protocol: (§1) To prepare an expedient active compound preparation, 1 part by weight of active compound is mixed with the specified amount of solvent, the specified amount of emulsifier is added and the concentrate is diluted with water to the desired concentration.
Seeds of the test plants are sown in standard soil and are watered after 24 hours with the active compound preparation. The amount of water per unit area is expediently kept constant during this. The active compound concentration in the preparation is not important, only the application rate of the active compound per unit area is critical. After three weeks, the degree of damage of the plants is evaluated in % damage in comparison with the development of the untreated control. In the evaluation:
(§2) 0% denotes no effect (as untreated control)
(§3) 100% denotes total destruction

Data set [2] relates to wheat. Kind of data set: Post-emergence test, wheat. Format: in vivo. As to conditions: 30 g per hectare, after three weeks, cultivated plant. The protocol: as §1
(§4) Test plants which have a height of 5-15 cm are sprayed with the active compound preparation in such a way that the amounts of active compound per unit area desired in each case are applied. After three weeks, the degree of damage of the plants is evaluated in % damage in comparison with the development of the untreated control.
as §2, §3

Another data set deals with Abutilon. Nature of the data set: Post-emergence test, Abutilon. The class given is in vivo. The following applies: 30 g per hectare, after three weeks. The protocol:
as §1, §4, §2, §3

A further data set relates to Chenopodium. Nature of the data set: Post-emergence test, Chenopodium. Format: in vivo. The following applies: 30 g per hectare, after three weeks. The protocol:
as §1, §4, §2, §3

The subject of a further data set is Ipomoea. Kind of data set: Post-emergence test, Ipomoea. The class given is in vivo. As to conditions: 30 g per hectare, after three weeks. The protocol:
as §1, §4, §2, §3

The test system of a further data set is Solanum. Kind of data set: Post-emergence test, Solanum. The class given is in vivo. As to conditions: 30 g per hectare, after three weeks. As to the method:
as §1, §4, §2, §3

The next data set concerns Veronica. Kind of data set: Post-emergence test, Veronica. Format: in vivo. As to conditions: 30 g per hectare, after three weeks. As to the method:
as §1, §4, §2, §3

The subject of data set [3] is horseradish leaf beetle larvae Phaedon cochleariae. Kind of data set: Phaedon larvae test. The following applies: after 3 days, active compound concentration 0.1%, cabbage leaves dipped. The class given is in vivo. As to the method:
Solvent: 7 parts by weight of dimethylformamide
Emulsifier: 1 part by weight of alkylaryl polyglycol ether
To produce an expedient active compound preparation, 1 part by weight of active compound is mixed with the specified amount of solvent and the specified amount of emulsifier and the concentrate is diluted with water to the desired concentration.
Cabbage leaves (Brassica oleracea) are treated by dipping them into the active compound preparation of the desired concentration and populated with horseradish leaf beetle larvae Phaedon cochleariae, as long as the leaves are still moist.
After the desired time, the destruction is determined in %. In the determination, 100% denotes that all beetle larvae have been destroyed; 0% denotes that no beetle larvae have been destroyed.

The structures appear in SMILES notation.

Usually melting point stands for the temperature, or range, at which the solid turns liquid. On to `CCS(=O)(=O)N(c1cc(-n2c(=O)cc(C(F)(F)F)n(C)c2=S)c(F)cc1C#N)S(C)(=O)=O` [Example 32, 1-(4-cyano-2-fluoro-5-(N-ethylsulphonyl-N-methylsulphonyl-amino)-phenyl)-3,6-dihydro-2-thio-6-oxo-3-methyl-4-trifluoromethyl-1(2H)-pyrimidine], for which the melting point stood at 122 °C.
On the same count and under the same terms, the value for `CCS(=O)(=O)N(C)c1cc(-n2c(=O)cc(C(F)(F)F)n(C)c2=S)c(F)cc1C#N` [Example 33, 1-(4-cyano-2-fluoro-5-(N-ethylsulphonyl-N-methyl-amino)-phenyl)-3,6-dihydro-2-thio-6-oxo-3-methyl-4-trifluoromethyl-1(2H)-pyrimidine] was 68 °C.
As for `Cn1c(C(F)(F)F)cc(=O)n(-c2cc(F)c(C#N)cc2F)c1=S` [Example 3, 1-(4-cyano-2,5-difluoro-phenyl)-3,6-dihydro-2-thioxo-6-oxo-3-methyl-4-trifluoromethyl-1(2H)-pyrimidine], the “degree of damage of the plants in % damage, wheat” value came out at 0% with wheat [1] and 5% in the data set with wheat [2]. The “degree of damage of the plants in % damage, Abutilon” value in the data set on Abutilon is reported as 100%. In addition, in the data set on Chenopodium, the “degree of damage of the plants in % damage, Chenopodium” value is 100%. For the same compound, in the data set with Ipomoea, the “degree of damage of the plants in % damage, Ipomoea” value came out at 100%. Besides, in the data set on Solanum, the “degree of damage of the plants in % damage, Solanum” value was 100%. Moreover, the “degree of damage of the plants in % damage, Veronica” value in the data set on Veronica was 100%. Further, the degree of destruction in data set [3] amounted to 100%.
With `CCS(=O)(=O)Nc1cc(-n2c(=O)cc(C(F)(F)F)n(C)c2=S)c(F)cc1C#N` [Example 4, 1-(4-cyano-2-fluoro-5-ethylsulphonylamino-phenyl)-3,6-dihydro-2-thio-6-oxo-3-methyl-4-trifluoromethyl-1(2H)-pyrimidine], the “degree of damage of the plants in % damage, wheat” value in the data set with wheat [1] worked out at 0%; with wheat [2] it was 5%. The “degree of damage of the plants in % damage, Abutilon” value in the data set with Abutilon came to 100%. Further, in the data set on Chenopodium, the “degree of damage of the plants in % damage, Chenopodium” value turned out to be 100%. Besides, the “degree of damage of the plants in % damage, Ipomoea” value in the data set on Ipomoea came out at 100%. Besides, the “degree of damage of the plants in % damage, Solanum” value in the data set on Solanum is given as 100%. In addition, the “degree of damage of the plants in % damage, Veronica” value with Veronica was 100%.
